Source: publication PMC9993459, “A novel selective spleen tyrosine kinase inhibitor SKI-O-703 (cevidoplenib) ameliorates lupus nephritis and serum-induced arthritis in murine models” (Clinical and Experimental Immunology, 2022)
“Also recorded” adds a separate entry of the source.

Assays:
[1] = target: Syk (Homo sapiens, UniProt P43405); assay: Kinase assay (LANCE Ultra TR-FRET), Syk; type: biochemical
Description: (§1) Kinase assays were conducted in 384-well plates using LANCE ultra 66 time-resolved fluorescence resonance energy transfer (TR-FRET) methods, according to the manufacturer’s instructions (Perkin-Elmer). In brief, each kinase was pre-incubated with a serially diluted compound for 30 min, incubated with ULight poly-GT peptide substrate and ATP for up to 1 h. Thirty minutes after adding Eu-labeled anti-phosphopeptides Ab diluted in LANCE Detection Buffer, LANCE signals were measured with an EnVision multilabel reader (Perkin-Elmer).

[2] = target: Pyk2 (Homo sapiens, UniProt Q14289); assay: Kinase assay (LANCE Ultra TR-FRET), Pyk2; type: biochemical
Chain of Pyk2 (Q14289 whole entry, species assumed): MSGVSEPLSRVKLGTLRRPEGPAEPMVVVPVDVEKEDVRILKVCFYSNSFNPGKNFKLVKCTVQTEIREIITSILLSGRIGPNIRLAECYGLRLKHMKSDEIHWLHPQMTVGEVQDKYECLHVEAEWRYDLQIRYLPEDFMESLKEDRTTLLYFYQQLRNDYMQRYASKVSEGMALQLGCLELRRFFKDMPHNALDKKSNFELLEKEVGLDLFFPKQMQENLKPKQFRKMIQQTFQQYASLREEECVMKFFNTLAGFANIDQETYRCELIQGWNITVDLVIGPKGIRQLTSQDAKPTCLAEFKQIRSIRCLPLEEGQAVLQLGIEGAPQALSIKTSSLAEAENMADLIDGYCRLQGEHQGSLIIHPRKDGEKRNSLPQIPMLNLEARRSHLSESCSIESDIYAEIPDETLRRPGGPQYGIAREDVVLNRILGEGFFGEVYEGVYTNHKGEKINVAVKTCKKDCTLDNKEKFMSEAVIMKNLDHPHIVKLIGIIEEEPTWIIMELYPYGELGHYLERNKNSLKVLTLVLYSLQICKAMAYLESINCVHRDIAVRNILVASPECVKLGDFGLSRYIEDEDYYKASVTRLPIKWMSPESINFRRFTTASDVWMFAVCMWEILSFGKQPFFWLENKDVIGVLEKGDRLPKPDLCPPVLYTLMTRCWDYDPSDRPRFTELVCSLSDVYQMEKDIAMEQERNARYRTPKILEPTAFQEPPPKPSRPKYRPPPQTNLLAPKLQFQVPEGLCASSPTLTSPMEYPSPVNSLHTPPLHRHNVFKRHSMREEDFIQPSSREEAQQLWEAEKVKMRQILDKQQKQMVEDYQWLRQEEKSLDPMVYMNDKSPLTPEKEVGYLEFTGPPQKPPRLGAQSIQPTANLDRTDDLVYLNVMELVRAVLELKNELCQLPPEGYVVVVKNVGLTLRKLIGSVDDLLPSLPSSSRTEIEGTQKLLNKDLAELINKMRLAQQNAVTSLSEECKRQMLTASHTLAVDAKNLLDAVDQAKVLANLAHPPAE
Description: as §1

[3] = target: T1, Zap70 (Homo sapiens, UniProt P43403); assay: Immunoblotting of Zap70 phosphorylation in TCR-stimulated T cells; type: cell-based; conditions: 0.3–10 μM
T1 construct: endogenous in cells; host or cells: human peripheral T cells sorted from PBMC, stimulated with anti-CD3 and anti-CD28
T1 sequence (P43403 whole entry): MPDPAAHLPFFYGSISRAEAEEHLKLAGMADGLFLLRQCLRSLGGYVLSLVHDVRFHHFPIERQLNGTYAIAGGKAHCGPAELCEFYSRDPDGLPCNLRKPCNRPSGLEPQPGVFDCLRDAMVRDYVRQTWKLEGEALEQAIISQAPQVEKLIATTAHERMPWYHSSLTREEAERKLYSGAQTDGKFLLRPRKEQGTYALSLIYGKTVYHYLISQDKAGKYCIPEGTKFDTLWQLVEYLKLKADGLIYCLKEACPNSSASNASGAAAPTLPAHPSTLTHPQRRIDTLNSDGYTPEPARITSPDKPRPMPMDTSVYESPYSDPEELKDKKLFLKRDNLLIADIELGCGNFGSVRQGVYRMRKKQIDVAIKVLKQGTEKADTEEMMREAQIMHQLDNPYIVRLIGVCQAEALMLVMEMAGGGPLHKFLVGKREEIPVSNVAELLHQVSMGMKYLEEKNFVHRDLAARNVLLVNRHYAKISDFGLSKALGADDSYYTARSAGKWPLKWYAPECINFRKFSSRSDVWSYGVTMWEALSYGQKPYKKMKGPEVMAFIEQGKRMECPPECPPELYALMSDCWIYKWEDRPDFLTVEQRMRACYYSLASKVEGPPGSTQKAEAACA

[4] = test system: mouse primary T cells; assay: Annexin V/7-AAD apoptosis assay in TCR-engaged primary T cells; type: cell-based; conditions: up to 5 μM
Description: Supplementary F igure 1. SKI -O-592 and - 703 s p a re TCR- mediated signaling in T cells
(A) The stru cture of SKI-O-703. (B-D) Human per ipheral T cells sorted fro m human peripheral blood mononuclear cells (B and D) and mouse primary T cells sorted from spleen (C ) wer e stimulated with 5 µ g/ml anti- CD3 and 2 µ g/ml anti- CD28 m Abs in the presence or absence of inhibitors as indicated. Af ter one hour (B) and 24 h ours (C and D) of culture, cells we re assaye d […]
by immunoblotting (B), FA C S ( C), and ELISA (D). […]
of Zap70 and its downstream target PLCγ1. It’s effect on the suppression of IL-2 production […]
Supplementary F igure 2. Gating strategy for FACS of spleen cells
Erythrocyte-d epleted mo use spleen cells w ere assayed by FACS. Whole live cells were gated as shown: plasma cells (C D19lo/- CD138hi), GC B cells (CD19+ CD138- GL-7h i FA S hi), follicular B cells (CD19+ CD43- CD23hi CD21-), marginal zone B cells (CD19+ C D43- CD21hi CD23lo ), and Tfh cells (CD4+ CXCR5+ PD-1hi).
Supplementary Figure 3. Differential susceptibility of short-lived and long-lived plasma […]
When spleen cells from NZB/W mice were assay ed by FACS as in Fig. 5, they were stained intracellularly with anti- Ki-67 mAb to distinguish Ki-67+ dividing cells from Ki-67- non-dividing cells among t h e CD138hi population. […]

| SMILES | Ratio to Syk (Syk) ([1]; IC50 ratio to Syk) | IC50 against all other kinases tested relative to Syk ([1]; fold higher than against Syk) | IC50 ([1]; kinase activity, TR-FRET) [µM] | Potency as Syk kinase inhibitor relative to R406 ([1]; more potent than R406) | Ratio to Syk (Pyk2) ([2]; IC50 ratio to Syk) | IC50 ([2]; kinase activity, TR-FRET) [µM] | Phosphorylation of Zap70 and its downstream target PLCγ1 [3] | Proportions of early and late apoptotic T cells [4] |
| --- | --- | --- | --- | --- | --- | --- | --- | --- |
| Cc1nn(-c2ccnc(Nc3ccc4c(c3)c(C(=O)C3CC3)cn4C)n2)cc1CN1C[C@H](O)CO1 [SKI-O-592] | 1.0 | 67- to 2753 fold | 0.0062 | approximately 9 fold | 115 | 0.709 | did not inhib it phosphorylation; also recorded: failed to affect |  |
| CS(=O)(=O)O.CS(=O)(=O)O.Cc1nn(-c2ccnc(Nc3ccc4c(c3)c(C(=O)C3CC3)cn4C)n2)cc1CN1C[C@H](O)CO1 [SKI-O-703, (S)-cyclopropyl(5-((4-(4-((4-hydroxyisoxazolidin-2-yl)methyl)-3-methyl-1H-pyrazol-1-yl)pyrimidin-2-yl)amino)-1-methyl-1H-indol-3-yl)methanone dimesylate] |  |  |  |  |  |  |  | did not promote apoptotic cell death; also recorded: failed to increase |
